The text below walks through data of ChEMBL document CHEMBL1129938, “Synthesis and biological evaluation of nonclassical 2,4-diamino-5-methylpyrido[2,3-d]pyrimidines with novel side chain substituents as potential inhibitors of dihydrofolate reductases” (J Med Chem, 1997).

The target of data set [1] is T1, Bifunctional dihydrofolate reductase-thymidylate synthase (Toxoplasma gondii, UniProt Q07422).
T1 sequence (Q07422 whole entry): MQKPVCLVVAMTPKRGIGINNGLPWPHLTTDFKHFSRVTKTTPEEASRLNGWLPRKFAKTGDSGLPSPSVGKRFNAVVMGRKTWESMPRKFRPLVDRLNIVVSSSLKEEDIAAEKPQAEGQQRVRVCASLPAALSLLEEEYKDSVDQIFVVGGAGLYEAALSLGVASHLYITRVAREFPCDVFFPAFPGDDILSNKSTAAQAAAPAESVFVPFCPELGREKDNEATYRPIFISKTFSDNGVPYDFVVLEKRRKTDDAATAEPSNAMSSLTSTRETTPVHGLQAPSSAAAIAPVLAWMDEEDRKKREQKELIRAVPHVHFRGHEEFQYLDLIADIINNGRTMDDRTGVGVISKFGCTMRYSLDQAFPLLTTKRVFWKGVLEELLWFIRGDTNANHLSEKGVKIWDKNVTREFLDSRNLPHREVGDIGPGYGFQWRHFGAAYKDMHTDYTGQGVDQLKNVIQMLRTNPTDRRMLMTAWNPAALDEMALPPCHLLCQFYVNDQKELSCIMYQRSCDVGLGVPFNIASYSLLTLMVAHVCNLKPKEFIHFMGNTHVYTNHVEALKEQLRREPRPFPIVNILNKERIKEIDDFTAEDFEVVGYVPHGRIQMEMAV
Description: Inhibition of Dihydrofolate Reductase of Toxoplasma gondii.

The target of data set [2] is T2, Dihydrofolate reductase (Rattus norvegicus, UniProt Q920D2).
T2 sequence (Q920D2 whole entry): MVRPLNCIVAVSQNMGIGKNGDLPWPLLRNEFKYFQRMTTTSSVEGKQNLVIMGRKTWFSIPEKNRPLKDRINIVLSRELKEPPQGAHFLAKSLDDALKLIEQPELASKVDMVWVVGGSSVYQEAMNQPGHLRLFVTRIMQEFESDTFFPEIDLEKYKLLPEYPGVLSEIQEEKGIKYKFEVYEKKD
Description: Inhibition of Dihydrofolate Reductase of Rat Liver.

Data set [3] addresses T3, Dihydrofolate reductase (Pneumocystis carinii, UniProt P16184).
T3 sequence (P16184 whole entry): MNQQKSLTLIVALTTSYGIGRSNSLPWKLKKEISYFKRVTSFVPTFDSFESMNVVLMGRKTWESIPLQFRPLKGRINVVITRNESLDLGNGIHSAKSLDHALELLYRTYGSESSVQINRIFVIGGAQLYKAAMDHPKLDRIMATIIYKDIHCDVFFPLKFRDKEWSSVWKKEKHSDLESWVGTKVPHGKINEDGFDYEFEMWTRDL
Description: Inhibition of Dihydrofolate Reductase of Pneumocystis carinii.

A short description of data set [4]: Partition coefficient (logP). It counts as physicochemical. The note with it: octanol/water.
A short description of data set [5]: Selectivity ratio of Toxoplasma gondii cell culture to the T. gondii (tg) Dihydrofolate Reductase. It counts as functional.
Data set [6] has as its system CHO. Nature of the data set: Cell culture inhibition was assessed by measuring incorporation of [3H]uracil into Toxoplasma gondii cells (CHO cell line). Format: functional, cell-based. The note with it: Cricetulus griseus.

By IC50 is commonly meant the concentration that gives 50% inhibition. High values mean weaker potency in that assay, low ones greater potency in that assay. As to `Cc1c(C)c(-n2cccc2)c(C)c(C)c1NCc1cnc2nc(N)nc(N)c2c1C`, the results for the IC50 in data set [1], in data set [2] and in data set [3] were 75 nM, 170 nM and 620 nM, respectively.

For `COc1ccc2c(c1)CCN2Cc1cnc2nc(N)nc(N)c2c1C`, the half-maximal inhibitory concentration (IC50) is 57 nM in data set [1], 170 nM in data set [2] and 250 nM in data set [3].

In the case of `COc1cc2c(cc1OC)CN(Cc1cnc3nc(N)nc(N)c3c1C)CC2`, the IC50 in data set [1] worked out at 110 nM; in data set [2], 130 nM; in data set [3], 850 nM.

Take `COc1cc(NCc2cnc3nc(N)nc(N)c3c2C)c(-n2cccc2)cc1OC`: the IC50 in data set [1] came to 600 nM; in data set [2], 3500 nM.

In general, logP refers to a log measure of how a compound divides between an organic and an aqueous phase. In turn, `COc1ccc(-c2ccccc2)cc1NCc1cnc2nc(N)nc(N)c2c1C` showed a logP in data set [4] of 4.77. Further, the results for the IC50 in data set [1] and in data set [2] were 68 nM and 440 nM, respectively.

As to `COc1ccc2c(ccn2Cc2cnc3nc(N)nc(N)c3c2C)c1`, the logP in data set [4] stood at 3.07. The Selectivity ratio in data set [5] is recorded as 13. Further, the IC50 in data set [1] turned out to be 77 nM; in data set [2] it was 470 nM; in data set [3], 570 nM; in data set [6] it was 1000 nM.

`COc1cccc2c1CCN2Cc1cnc2nc(N)nc(N)c2c1C`: the IC50 in data set [1] was determined as 48 nM; in data set [2], 150 nM; in data set [3], 290 nM.

Consider `COc1cc2c(cc1OC)N(Cc1cnc3nc(N)nc(N)c3c1C)CC2`, for which the logP in data set [4] is 2.33. Further, the Selectivity ratio in data set [5] came to 512. Moreover, the IC50 worked out at 49 nM in data set [1], 230 nM in data set [2], 410 nM in data set [3] and 25100 nM in data set [6].

Take `COc1cc(-n2cccc2)c(OC)cc1NCc1cnc2nc(N)nc(N)c2c1C`: the results for the IC50 in data set [1], in data set [2] and in data set [3] were 33 nM, 230 nM and 350 nM, respectively.
